Measurements: patent US20220233502A1, “COMPOSITION FOR PREVENTING OR TREATING ASTHMA, RHINITIS OR CONJUNCTIVITIS, COMPRISING N-ACYL AMINO ACID AS ACTIVE INGREDIENT” (STEMDR INC., priority 2019, published 2022)
Entries after “also recorded” stand apart in the source; their conditions may differ.

How the values were obtained:
Type in all cases: in vivo, BALB/c mice
IL-5 = experiment: Th2 cytokine IL-5 in bronchial wash (ELISA); conditions: OVA asthma mice; 3.5 μmol/kg oral once a day for 7 days from day 25; FIG. 4
Experimental: (§1) Specific pathogen-free BALB/c mice (6-week-old, male) were purchased from Doul Biotech (Osan, Korea). Experiment was started when the mice were 7- to 10-week old. The mice were housed in a laminar flow cabinet and were given water and feed ad libitum.
(§2) The mice were sensitized by intraperitoneally injecting 0.02 mg of ovalbumin (OVA) and alum (1 mg) (Sigma-Aldrich) as an immunologic adjuvant twice on days 0 and 14. For 4 days from day 28, the mice were placed in a plastic nebulizer container of a regular size and were made to inhale OVA in the form of an aerosol by spraying 5% OVA for 30 minutes (airway challenge).
(§3) The concentration of several cytokines (TNF-α, IL-4, IL-5, IL-13) in bronchial wash was measured using an ELISA kit (R&D Systems, Minneapolis, Minn., USA).
(§4) Th2 cytokines, IL-4, IL-5 and IL-13, are known to be involved in airway inflammation, bronchial hypersensitivity and IgE antibody production mediated by eosinophils. 3.5 μmol/kg N-acetyl-L-alanine, N-oleoyl-L-alanine, N-acetyl-L-tryptophan or N-oleoyl-L-tryptophan dissolved in 10 mL of phosphate-buffered saline was orally administered once a day, for 7 days from day 25 after the induction of asthma, and the cytokines were measured.

[1] = tested on: asthma-induced mice (lung tissue); experiment: H&E staining of lung tissue, degree of inflammation; conditions: OVA asthma mice; oral administration for a week; vs OVA-challenged group; FIG. 1
Experimental: as §1, §2
(§5) For histological assay, tissues taken out from the lung were fixed with formalin and embedded in paraffin. The embedded tissue was sliced to 4-μm thickness and subjected to 1) hematoxylin and eosin (H&E) staining for investigation of the degree of inflammation and 2) Masson's trichrome staining for investigation of the degree of pulmonary fibrosis.
Lung tissue was stained with H&E after oral administration of the drug for a week.

[2] = tested on: asthma-induced mice (inflammatory cells in the airway); experiment: Inflammatory cells in bronchoalveolar lavage fluid of asthma-induced mice; conditions: OVA asthma mice; for inflow of eosinophils into the airway / WBC, bronchoalveolar lavage fluid: 3.5 μmol/kg oral once a day for 7 days from day 25; for inflow of eosinophils into the airway: result in words; for WBC Differential Counting (%) EOS (eosinophils) / WBC Differential Counting (%) MAC (macrophages) / WBC Differential Counting (%) MONO (monocytes) / WBC Differential Counting (%) NEU (neutrophils) / WBC Differential Counting (k/uL) EOS (eosinophils) / WBC Differential Counting (k/uL) MAC (macrophages) / WBC Differential Counting (k/uL) MONO (monocytes) / WBC Differential Counting (k/uL) NEU (neutrophils) / WBC, bronchoalveolar lavage fluid: mean, N=8; for WBC Differential Counting (%) EOS (eosinophils) / WBC Differential Counting (%) MAC (macrophages) / WBC Differential Counting (%) MONO (monocytes) / WBC Differential Counting (%) NEU (neutrophils) / WBC Differential Counting (k/uL) EOS (eosinophils) / WBC Differential Counting (k/uL) MAC (macrophages) / WBC Differential Counting (k/uL) MONO (monocytes) / WBC Differential Counting (k/uL) NEU (neutrophils): BAL fluid, 3.5 μmol/kg oral once a day for 7 days
Experimental: Specific pathogen-free BALB/c mice (6-week-old, male) were purchased from Doul Biotech (Osan, Korea). Experiment was started when the mice were 7- to 10-week old. The mice were housed in a laminar flow cabinet and were given water and feed ad libitum. The mice were sensitized by intraperitoneally injecting 0.02 mg of ovalbumin (OVA) and alum (1 mg) (Sigma-Aldrich) as an immunologic adjuvant twice on days 0 and 14. For 4 days from day 28, the mice were placed in a plastic nebulizer container of a regular size and were made to inhale OVA in the form of an aerosol by spraying 5% OVA for 30 minutes (airway challenge). After anesthetizing the mouse and inserting a tube into the bronchus, the bronchus was washed with a buffer and cells were obtained therefrom. The cells were centrifuged, suspended at 1×10^4 cells/100 μL, and fixed by centrifuging with a cytospin. Then, the number of eosinophils, monocytes, neutrophils and macrophages were measured by staining with Diff-Quik. Neutrophils, macrophages, monocytes and eosinophils were observed as inflammatory cells in the airway. Each of N-acetyl-L-alanine, N-oleoyl-L-alanine, N-acetyl-L-tryptophan and N-oleoyl-L-tryptophan was dissolved in 10 mL of phosphate-buffered saline to 3.5 μmol/kg and was orally administered for 7 days from day 25, once a day.

[3] = tested on: asthma-induced mice (lung tissue); experiment: Masson's trichrome staining of lung tissue, degree of fibrosis around the airway; conditions: OVA asthma mice; oral administration for a week; vs OVA-challenged group; FIG. 2
Experimental: as §1, §2, §5
Lung tissue was stained with Masson's trichrome after oral administration of the drug for a week.

[4] = tested on: conjunctivitis-induced mice; experiment: OVA-induced conjunctivitis, clinical grading of conjunctival edema and flare; conditions: 10 μL of 100 μM intraocularly 30 minutes and 12 hours after challenge, scale 0 to 4+, FIG. 7
Experimental: as §1
The mice were sensitized by intraperitoneally injecting 0.02 mg of ovalbumin (OVA) and alum (1.5 mg) (Sigma-Aldrich) as an immunologic adjuvant twice on days 0 and 7. For 12 days from day 14, conjunctivitis was induced by injecting 10 μL of a solution of 100 μg of OVA dissolved in 20 μL of phosphate-buffered saline into each eye, once a day.
24 hours after the final injection of OVA (day 25), the clinical grading of conjunctival edema and flare (redness) was assessed using a portable slit lamp (Carl Zeiss, Oberkochen, Germany). The assessment was performed in a blinded fashion 2 hours after OVA injection. Each clinical parameter was scored on a scale of 0 to 4+(0 absent, 1+minimal, 2+mild, 3+moderate, 4+severe) as described in Merayo-Lloves, J., Calonge, M, and Foster, C. S. 1995. Experimental model of allergic conjunctivitis to ragweed in guinea pig. Curr. Eye Res. 14: 487-494. A negative control group was given no treatment.
Ovalbumin of Preparation Example 4 was used as an antigen to induce conjunctivitis. After challenging 100 μg of ovalbumin into the eye from day 15 to 26, 10 μL of each of N-acetyl-L-alanine, N-oleoyl-L-alanine, N-acetyl-L-tryptophan and N-oleoyl-L-tryptophan dissolved in phosphate-buffered saline to 100 μM was intraocularly administered 30 minutes and 12 hours later. On day 26, the clinical grading of conjunctival edema and flare (redness) was assessed using a portable slit lamp (Carl Zeiss, Oberkochen, Germany).

IL-13 = experiment: Th2 cytokine IL-13 in bronchial wash (ELISA); conditions: OVA asthma mice; 3.5 μmol/kg oral once a day for 7 days from day 25; FIG. 5
Experimental: as §1, §2, §3, §4

rhinitis-induced mice = experiment: OVA-induced allergic rhinitis, nasal rubbing and sneezing; conditions: 10 μL of 10 μM intranasally; for number of nasal rubbing: counted for 15 minutes on day 27, FIG. 6A; for number of sneezing: counted for 15 minutes on day 27, FIG. 6B
Experimental: as §1
The mice were sensitized by intraperitoneally injecting 0.02 mg of ovalbumin (OVA) and alum (1 mg) (Sigma-Aldrich) as an immunologic adjuvant twice on days 0 and 14. For 7 days from day 21, the mice were topically stimulated by injecting 10 μL of a solution of 100 μg of OVA dissolved in 20 μL of phosphate-buffered saline into both nasal cavities, once a day. After the final injection of OVA (day 27), symptom score was recorded by summing the numbers of nasal rubbing and sneezing. The symptom score was recorded for 15 minutes, and the result was compared between the groups.
Ovalbumin (OVA) of Preparation Example 3 was used as an antigen to induce allergic rhinitis. After OVA challenging from day 21 to day 26, 10 μL of each of N-acetyl-L-alanine, N-oleoyl-L-alanine, N-acetyl-L-tryptophan and N-oleoyl-L-tryptophan dissolved in phosphate-buffered saline to 10 μM was intranasally administered 12 hours later. After the final injection of OVA (day 27), symptom score was recorded by summing the numbers of nasal rubbing and sneezing. The symptom score was recorded for 15 minutes, and the result was compared between the groups.

IL-4 = experiment: Th2 cytokine IL-4 in bronchial wash (ELISA); conditions: OVA asthma mice; 3.5 μmol/kg oral once a day for 7 days from day 25; FIG. 3
Experimental: as §1, §2, §3, §4

CCCCCCCC/C=C\CCCCCCCC(=O)N[C@@H](C)C(=O)O [NOA, N-oleoyl-L-alanine]
IL-5 secretion in airway (IL-5): significantly inhibited
inflammation around the airway, H&E staining of lung tissue [1]: remarkably inhibited inflammation; also recorded: highest inhibition of inflammation
inflow of eosinophils into the airway [2]: significantly inhibited
WBC Differential Counting (%) EOS (eosinophils) [2]: 3.4%
WBC Differential Counting (%) MAC (macrophages) [2]: 87.3%
WBC Differential Counting (%) MONO (monocytes) [2]: 3.8%
WBC Differential Counting (%) NEU (neutrophils) [2]: 5.5%
WBC Differential Counting (k/uL) EOS (eosinophils) [2]: 0.01 k/uL
WBC Differential Counting (k/uL) MAC (macrophages) [2]: 0.34 k/uL
WBC Differential Counting (k/uL) MONO (monocytes) [2]: 0.01 k/uL
WBC Differential Counting (k/uL) NEU (neutrophils) [2]: 0.02 k/uL
WBC, bronchoalveolar lavage fluid [2]: 0.38 ×10^2 cells/μL
fibrosis around the airway, Masson's trichrome staining of lung tissue [3]: inhibited fibrosis; also recorded: highest inhibition
clinical grade of conjunctivitis (conjunctival edema and flare) [4]: remarkably increased clinical grades
IL-13 secretion in airway (IL-13): significantly inhibited
number of nasal rubbing (rhinitis-induced mice): remarkably decreased
number of sneezing (rhinitis-induced mice): remarkably decreased
IL-4 secretion in airway (IL-4): significantly inhibited

CCCCCCCC/C=C\CCCCCCCC(=O)N[C@@H](Cc1c[nH]c2ccccc12)C(=O)O [NOT, N-oleoyl-L-tryptophan]
IL-5 secretion in airway (IL-5): significantly inhibited
inflammation around the airway, H&E staining of lung tissue [1]: remarkably inhibited inflammation
inflow of eosinophils into the airway [2]: significantly inhibited
WBC Differential Counting (%) EOS (eosinophils) [2]: 17.0%
WBC Differential Counting (%) MAC (macrophages) [2]: 74.3%
WBC Differential Counting (%) MONO (monocytes) [2]: 3.6%
WBC Differential Counting (%) NEU (neutrophils) [2]: 5.1%
WBC Differential Counting (k/uL) EOS (eosinophils) [2]: 0.07 k/uL
WBC Differential Counting (k/uL) MAC (macrophages) [2]: 0.32 k/uL
WBC Differential Counting (k/uL) MONO (monocytes) [2]: 0.01 k/uL
WBC Differential Counting (k/uL) NEU (neutrophils) [2]: 0.02 k/uL
WBC, bronchoalveolar lavage fluid [2]: 0.43 ×10^2 cells/μL
fibrosis around the airway, Masson's trichrome staining of lung tissue [3]: inhibited fibrosis
clinical grade of conjunctivitis (conjunctival edema and flare) [4]: remarkably increased clinical grades
IL-13 secretion in airway (IL-13): significantly inhibited
number of nasal rubbing (rhinitis-induced mice): remarkably decreased
number of sneezing (rhinitis-induced mice): remarkably decreased
IL-4 secretion in airway (IL-4): significantly inhibited

CC(=O)N[C@@H](Cc1c[nH]c2ccccc12)C(=O)O [NAT, N-acetyl-L-tryptophan]
IL-5 secretion in airway (IL-5): significantly inhibited
inflammation around the airway, H&E staining of lung tissue [1]: remarkably inhibited inflammation
inflow of eosinophils into the airway [2]: significantly inhibited
WBC Differential Counting (%) EOS (eosinophils) [2]: 20.1%
WBC Differential Counting (%) MAC (macrophages) [2]: 71.8%
WBC Differential Counting (%) MONO (monocytes) [2]: 3.9%
WBC Differential Counting (%) NEU (neutrophils) [2]: 4.1%
WBC Differential Counting (k/uL) EOS (eosinophils) [2]: 0.10 k/uL
WBC Differential Counting (k/uL) MAC (macrophages) [2]: 0.33 k/uL
WBC Differential Counting (k/uL) MONO (monocytes) [2]: 0.02 k/uL
WBC Differential Counting (k/uL) NEU (neutrophils) [2]: 0.02 k/uL
WBC, bronchoalveolar lavage fluid [2]: 0.47 ×10^2 cells/μL
fibrosis around the airway, Masson's trichrome staining of lung tissue [3]: inhibited fibrosis
clinical grade of conjunctivitis (conjunctival edema and flare) [4]: remarkably increased clinical grades
IL-13 secretion in airway (IL-13): significantly inhibited
number of nasal rubbing (rhinitis-induced mice): remarkably decreased
number of sneezing (rhinitis-induced mice): remarkably decreased
IL-4 secretion in airway (IL-4): significantly inhibited

CC(=O)N[C@@H](C)C(=O)O [NAA, N-acetyl-L-alanine]
IL-5 secretion in airway (IL-5): significantly inhibited
inflammation around the airway, H&E staining of lung tissue [1]: remarkably inhibited inflammation
inflow of eosinophils into the airway [2]: significantly inhibited
WBC Differential Counting (%) EOS (eosinophils) [2]: 10.1%
WBC Differential Counting (%) MAC (macrophages) [2]: 81.8%
WBC Differential Counting (%) MONO (monocytes) [2]: 3.3%
WBC Differential Counting (%) NEU (neutrophils) [2]: 4.9%
WBC Differential Counting (k/uL) EOS (eosinophils) [2]: 0.04 k/uL
WBC Differential Counting (k/uL) MAC (macrophages) [2]: 0.32 k/uL
WBC Differential Counting (k/uL) MONO (monocytes) [2]: 0.01 k/uL
WBC Differential Counting (k/uL) NEU (neutrophils) [2]: 0.02 k/uL
WBC, bronchoalveolar lavage fluid [2]: 0.39 ×10^2 cells/μL
fibrosis around the airway, Masson's trichrome staining of lung tissue [3]: inhibited fibrosis
clinical grade of conjunctivitis (conjunctival edema and flare) [4]: remarkably increased clinical grades
IL-13 secretion in airway (IL-13): significantly inhibited
number of nasal rubbing (rhinitis-induced mice): remarkably decreased
number of sneezing (rhinitis-induced mice): remarkably decreased
IL-4 secretion in airway (IL-4): significantly inhibited
